Experiments:
[1] = molecular target: T1, Mycothiol S-conjugate amidase (Mycobacterium tuberculosis, UniProt P9WJN1); assay: Inhibition of Mycobacterium tuberculosis MCA by fluorescence-detected HPLC assay
T1 sequence (P9WJN1 whole entry): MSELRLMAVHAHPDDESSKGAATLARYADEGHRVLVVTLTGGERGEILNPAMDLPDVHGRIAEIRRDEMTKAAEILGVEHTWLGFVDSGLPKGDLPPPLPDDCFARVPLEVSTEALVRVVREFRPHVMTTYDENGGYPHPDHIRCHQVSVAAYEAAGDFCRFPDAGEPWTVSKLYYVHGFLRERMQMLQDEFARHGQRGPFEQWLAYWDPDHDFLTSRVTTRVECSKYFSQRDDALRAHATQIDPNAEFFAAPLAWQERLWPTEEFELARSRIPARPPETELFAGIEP

[2] = molecular target: T2, 1D-myo-inositol 2-acetamido-2-deoxy-alpha-D-glucopyranoside deacetylase (Mycobacterium tuberculosis, UniProt P9WJN3); assay: Inhibition of Mycobacterium tuberculosis MshB by fluorescence-detected HPLC assay
T2 sequence (P9WJN3 whole entry): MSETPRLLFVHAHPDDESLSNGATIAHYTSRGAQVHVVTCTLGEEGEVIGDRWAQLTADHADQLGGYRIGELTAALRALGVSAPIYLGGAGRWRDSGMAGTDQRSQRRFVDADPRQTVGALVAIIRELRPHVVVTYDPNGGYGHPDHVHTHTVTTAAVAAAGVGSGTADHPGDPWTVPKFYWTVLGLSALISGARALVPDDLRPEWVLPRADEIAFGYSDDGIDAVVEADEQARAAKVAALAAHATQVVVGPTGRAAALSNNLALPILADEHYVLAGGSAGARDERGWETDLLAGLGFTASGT

Compound	IC50 [1]	IC50 [2]
CC(C)(C)C(=O)ON[C@@H](CCc1ccccc1)C(=O)N[C@H]1[C@H](O)[C@@H](O)[C@H](CO)O[C@H]1SC1CCCCC1	145 µM	> 200 µM
O=C(N[C@H]1[C@H](O)[C@@H](O)[C@H](CO)O[C@H]1SC1CCCCC1)c1ccc(-c2ccc(Cl)cc2)o1 (single isomer, unassigned)	33 µM	7 µM
O=S(=O)(CCCCc1ccccc1)N[C@H]1[C@H](O)[C@@H](O)[C@H](CO)O[C@H]1SC1CCCCC1 (single isomer, unassigned)	120 µM	101 µM
O=C(N[C@H]1[C@H](O)[C@@H](O)[C@H](CO)O[C@H]1SC1CCCCC1)C1CCOC(c2cccc(F)c2)=N1 (single isomer, unassigned)	> 200 µM	10 µM
O=C(N[C@H]1[C@H](O)[C@@H](O)[C@H](CO)O[C@H]1SC1CCCCC1)C1COC(c2cccc(F)c2)=N1 (single isomer, unassigned)	> 200 µM	28 µM
O=S(=O)(/C=C/CCc1ccccc1)N[C@H]1[C@H](O)[C@@H](O)[C@H](CO)O[C@H]1SC1CCCCC1 (single isomer, unassigned)	90 µM	105 µM
